Experiments:
[1] = White, Amber and Yellow polymorphic forms of WAY; literature (Yeadon 1985; Xiaorong He 2000); cited from earlier work
[2] = cocrystal compared with crystals of fluoxetine HCl
[3] = Form I vs Form II, room temperature; Zhang et al. 2002; cited from earlier work

CC(=O)Nc1ccc(C)cc1[N+](=O)[O-] [amber form, 4-methyl-2-nitroacetanilide]
relative stability of the three forms [1]: least stable

CNCCC(Oc1ccc(C(F)(F)F)cc1)c1ccccc1.Cl.O=C(O)c1ccccc1 (centres unmarked) [fluoxetine HCl:benzoic acid]
dissolution rate [2]: lower dissolution rate

Cc1ccnc(NS(=O)(=O)c2ccc(N)cc2)n1 [sulfamerazine Form II, Sulfamerazine]
relative stability of polymorphic forms [3]: most stable form at room temperature

CC(=O)Nc1ccc(C)cc1[N+](=O)[O-] [white form, 4-methyl-2-nitroacetanilide]
relative stability of the three forms [1]: most stable form

CC(=O)Nc1ccc(C)cc1[N+](=O)[O-] [yellow form, 4-methyl-2-nitroacetanilide]
relative stability of the three forms [1]: more stable than the amber form
